# Key:
# [1] = test system: MM cells cultured in the presence of bone-marrow stromal cells; assay: CS-BLI viability in co-culture with bone marrow stromal cells; assay type: cell-based, human; settings: co-culture vs MM cells alone
# Procedure: Cell viability and growth of human MM cell lines were assessed using CellTitre-Glo (CTG) assay (Promega, Madison, Wis.) per kit instructions, or CS-BLI as described (Delmore et al., 2011). Briefly, cells were seeded (5×10^3 cells/well) into 96- or 384-well opaque plates, in supplemented media (40 or 50 uL) and incubated for 24 h prior to addition of drug. For co-culture experiments, HS27A cells were pre-seeded (5×10^3 cells/well) into each well in media prior (24 h) to the addition of MM cells. At each time point (24 h, 48 h, and/or 72 h) CTG reagent (10% volume) was added to each well, and plates were read using a microplate reader (BioTek Synergy 2, BioTek, Winooski, Va.).
# MM.1S cells = assay: Reverse phase protein array (RPPA) of treated MM.1S cells; assay type: cell-based, human
# Procedure: MM.1S cells were seeded in 6-well plates (2×10^6/well) and cultured overnight prior to treatment. […] Lysates of these protein samples were processed by the Functional Proteomics RPPA Core Facility of the MD Anderson Cancer Center (Houston, Tex.), based on protocols and procedures outlined in the website of the facility (mdanderson.org/research/research-resources/core-facilities/functional-proteomicsrppa-core/rppa-process.html) and similarly to prior reports (Li et al., 2017). We mapped protein antibody labels to gene symbols available from Antibody Information and Protocols at MDACC (mdanderson.org/content/dam/mdanderson/documents/corefacilities/Functional%20Proteomics %20RPPA%20Core%20Facility/RPPA_Standard%20Ab%20List_Updated.xlsx). For data preprocessing, results from replicates of the same experimental run were averaged for each protein. The resulting matrix of RPPA data was further processed to generate log-transformed linear normalized data, linear normalized, and normalized median centered data. The differential protein expression analysis for dBET6- or JQ1-treated samples vs. controls were performed using the limma moderated t-statistic (Ritchie et al., 2015).
# [2] = Tolerability of dBET6 treatment in mice; assay type: in vivo
# Procedure: i. Subcutaneous MM xenograft model: Luciferase-positive MM.1S cells (10×106 Luc-GFP-MM.1S in matrigel) were transplanted into the right flank of NSG mice (100 μL). […] Treatments were carried out daily for 8 days and tumor size assessed daily using calipers. Mice were culled when tumors reached 2000 mm3 or when moribund.
# ii. Xenograft model of diffuse MM lesions: Luciferase-positive MM.1S cells (1×106 Luc-GFP-MM.1S) were injected via the tail vein (IV) into NSG mice. […] BLI was undertaken weekly and mice were euthanized when moribund or upon signs of hind-limb paralysis.
# [3] = test system: OPM1, OCI-MY5, KMS11 and OPM2 (shRNAs against CRBN); assay: CTG viability of MM cell lines with low CRBN levels; assay type: cell-based, human; settings: low but detectable CRBN, constitutive or shRNA
# From the text: Human MM cell lines KMS11 and OPM-2 expressing non-targeting control shRNAs or shRNA.
structure (smiles),measurement,setting,value
Cc1sc2c(c1C)C(c1ccc(Cl)cc1)=N[C@@H](CC(=O)NCCCCCCCCNC(=O)COc1cccc3c1C(=O)N(C1CCC(=O)NC1=O)C3=O)c1nnc(C)n1-2 (some centres unmarked) [dBET6],change in responsiveness in the presence of bone-marrow stromal cells,[1],No major changes in dBET6 responsiveness
same,protein changes at 4 hrs,"MM.1S cells; MM.1S, dBET6 0.1 μM, JQ1 0.5 μM, 4 hrs","causes downregulation of Mcl-1, Cyclin B1 (not shown), and BRD4"
same,RPPA expression of pro-survival and pro-apoptotic proteins,"MM.1S cells; MM.1S, dBET6 0.1 μM, 4 h and 18 h","reduce the expression of key pro-survival proteins, such as MCL-1, c-MYC, and pS6, while leading to the upregulation of cell cycle inhibitor, p21, and cleavage of executioner caspases 3 and 7"
same,protein changes at later time-points,"MM.1S cells; MM.1S, dBET6 0.1 μM, later time-points","suppression of Ser240/Ser244 S6 phosphorylation; induction of p21, and increase in cleaved caspase3/7"
same,suppression of c-MYC at protein level,MM.1S cells; dBET6 vs JQ1-treated MM.1S cells,more pronounced suppression of c-MYC
same,tolerability,[2]; doses and schedules reported,Mice tolerated dBET6 treatment
same,efficacy or tolerability of alternative regimens,"[2]; pilot experiments, lower or higher dose intensity (data not shown)","less efficacy or tolerability, respectively"
same,response of lines with low CRBN levels,[3],remained responsive to dBET6

# Reference: US20220288051A1, “METHODS FOR TREATING CANCER USING SERIAL ADMINISTRATION OF E3 UBIQUITIN LIGASE DEGRADERS” (Dana-Farber Cancer Institute, Inc., priority 2019, published 2022)
